# Results from US20220257552A1, “METHODS OF PRESCREENING AND TREATING BREAST CANCERS WITH SELECTIVE ANDROGEN RECEPTOR MODULATORS” (priority 2021, published 2022).
# Assays:
# Format in all cases: cell-based
# [1] = test system: HCC-38 triple negative breast cancer cells; experiment: SRB cell viability, HCC-38 cells infected with AR adenovirus; details: 3 days
# Method: (§1) The SRB assay was used to determine cell number during cytotoxocity experiments. The following protocol was used: • 1. Cells were detached with 0.25% trypsin. • 2. Experimental cultures were cultured in 96-well microtiter plates (200 μL growth medium per well; 1,000-200,000 cells per well). • 3. Cultures were fixed with 50 μL 50% TCA (4° C.). (see cell fixation protocol for details). • 4. Fixed cells were stained with 50 μL 0.4% (wt/vol) SRB in 1% acetic acid for 10 minutes. • 5. SRB was removed and the cultures were quickly* rinsed 5 times with 1% acetic acid to remove unbound dye.** • 6. Cultures were air-dried overnight until there was no visible moisture. • 7. The cellular protein-bound SRB was dissolved with 200 μL unbuffered Tris base (10 mM, pH 10.5) for 30 minutes on a rocking platform shaker. • 8. Absorbance was read at 540 nm. * quickly performing rinsing process was to prevent desorption of protein-bound SRB ** completely removed residual wash solution by sharply flicking plates over sink.
# The following protocol was used for fixing cells: • a. 50 μL of 50% TCA (4° C.) was gently layered on the top of growth medium in each well to make a final TCA concentration of 10%. • b. Cultures were incubated at 4° C. for 1 hour. • c. Cultures were washed 5 times with tap water to remove TCA, growth medium, low-molecular-weight metabolites, and serum protein. • d. […]
# HCI-13 tumor fragments = experiment: HCI-13 ex vivo sponge culture, real time PCR; details: for reversal of pS2 gene expression inhibited by Formula IX: 100 nM PMA or 100 ng/mL EGF before 1 μM Formula IX
# Method: HCI-13 tumors grown in female mice were allowed to reach 500-1000 mm^3 before the animals were sacrificed and the tumors were excised to be used for sponge culture. Patient specimens frozen in liquid nitrogen in freezing medium were used for sponge culture. […] Tumors were sliced into small pieces (˜1 mm^3) and incubated on pre-soaked gelatin sponges (5 fragments/sponge) in 12 well plates containing 1.5 mL medium (MEM+10% FBS+2 mM L-glutamine+10 μg/mL insulin+10 μg/mL hydrocortisone+penicillin:streptomycin). The cultures were performed in triplicates for HCI-13 and singly for patient specimens. Pooled samples (n=5/sponge) from each sponge constituted one sample. Tissues were harvested after 3 days of treatment, RNA extracted, and expression of various genes measured. Although the same procedure was adopted for specimens obtained from breast cancer patients, the specimens were cultured singly (n=5/sponge=one sample) and not in triplicates as performed for HCI-13.
# MDA-MB-231-AR cells = experiment: Morphology of MDA-MB-231-AR cells; details: 3 days
# Method: MDA-MB-231 cells were stably transfected with AR using lentivirus. […] Live cells were visualized using a light-microscope and photographed. The cells were imaged at the same magnification and under the same microscopic conditions.
# MDA-MB-231 cells were stably transfected with AR using lentivirus and were treated with vehicle or AR agonists at the indicated concentrations. At the end of 3 days of incubation, the cells were imaged under a microscope (40×).
# [2] = test system: MDA-MB-231 triple negative breast cancer cells; experiment: SRB cell viability, MDA-MB-231 cells infected with AR adenovirus
# Method: as §1
# The following protocol was used for fixing cells: • a. 50 μL of 50% TCA (4° C.) was gently layered on the top of growth medium in each well to make a final TCA concentration of 10%. • b. Cultures were incubated at 4° C. for 1 hour. • c. Cultures were washed 5 times with tap water to remove TCA, growth medium, low-molecular-weight metabolites, and serum protein. • d. Plates were air-dried until there was no visible moisture.
# Cells were treated in charcoal stripped FBS (FIGS. 4A, 4C, 4E, 4G, 4I, 4K, 4M and 4O) or full serum (FIGS. 4B, 4D, 4F, 4H, 4J, 4L, 4N and 4P) for 3 days, fixed and stained with […] (SRB) to measure cell viability. Anti-proliferative IC50 values were calculated in breast cancer cells and compared to transactivation values, i.e., EC50 (agonists) and IC50 (antagonists) values, generated in HEK-293 cells.
# PR = target: T1, PR (Rattus norvegicus, UniProt Q63449); experiment: PR transactivation in HEK-293 cells
# T1 construct: expressed in transfected cells
# T1 sequence (Q63449 1-923): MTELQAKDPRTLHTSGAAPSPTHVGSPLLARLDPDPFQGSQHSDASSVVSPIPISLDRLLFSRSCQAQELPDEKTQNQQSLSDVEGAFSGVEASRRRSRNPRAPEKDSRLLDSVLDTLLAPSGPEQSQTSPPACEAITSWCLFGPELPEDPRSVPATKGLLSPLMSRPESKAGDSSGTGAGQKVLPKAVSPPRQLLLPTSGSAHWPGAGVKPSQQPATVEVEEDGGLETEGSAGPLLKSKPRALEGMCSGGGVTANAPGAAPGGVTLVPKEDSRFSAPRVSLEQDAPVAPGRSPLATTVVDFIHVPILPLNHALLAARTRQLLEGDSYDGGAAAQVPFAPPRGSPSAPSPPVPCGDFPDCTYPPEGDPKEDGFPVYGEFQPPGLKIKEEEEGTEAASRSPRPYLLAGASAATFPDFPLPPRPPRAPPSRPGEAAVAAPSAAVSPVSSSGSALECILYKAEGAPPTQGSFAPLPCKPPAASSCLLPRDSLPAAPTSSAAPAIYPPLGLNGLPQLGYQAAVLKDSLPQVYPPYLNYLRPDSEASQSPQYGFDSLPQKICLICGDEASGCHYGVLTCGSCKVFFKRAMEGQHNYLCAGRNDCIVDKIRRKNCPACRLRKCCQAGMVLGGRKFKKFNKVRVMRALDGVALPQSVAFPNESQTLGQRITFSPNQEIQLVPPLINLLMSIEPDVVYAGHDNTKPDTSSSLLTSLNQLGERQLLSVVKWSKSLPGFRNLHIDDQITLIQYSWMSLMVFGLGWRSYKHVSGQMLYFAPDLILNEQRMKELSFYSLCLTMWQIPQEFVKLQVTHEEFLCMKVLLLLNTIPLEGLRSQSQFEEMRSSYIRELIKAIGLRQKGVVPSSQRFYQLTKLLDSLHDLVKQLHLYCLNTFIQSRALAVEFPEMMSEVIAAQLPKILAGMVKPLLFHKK
# Method: (§2) Rat GR, MR, PR, ER-α and ER-β were individually cloned into a pCR3.1 vector backbone. Sequencing was performed to verify the absence of any mutations. HEK-293 cells were plated at 90,000 cells per well of a 24 well plate in Dulbecco's Minimal Essential Media supplemented with 5% charcoal-stripped FBS. […] Luciferase assays were performed 48 h after transfection. Transcriptional activation values are represented as firefly luciferase normalized to renilla luciferase.
# MR = target: T2, MR (Rattus norvegicus, UniProt P22199); experiment: MR transactivation in HEK-293 cells; details: 1 nM
# T2 construct: expressed in transfected cells
# T2 sequence (P22199 1-981): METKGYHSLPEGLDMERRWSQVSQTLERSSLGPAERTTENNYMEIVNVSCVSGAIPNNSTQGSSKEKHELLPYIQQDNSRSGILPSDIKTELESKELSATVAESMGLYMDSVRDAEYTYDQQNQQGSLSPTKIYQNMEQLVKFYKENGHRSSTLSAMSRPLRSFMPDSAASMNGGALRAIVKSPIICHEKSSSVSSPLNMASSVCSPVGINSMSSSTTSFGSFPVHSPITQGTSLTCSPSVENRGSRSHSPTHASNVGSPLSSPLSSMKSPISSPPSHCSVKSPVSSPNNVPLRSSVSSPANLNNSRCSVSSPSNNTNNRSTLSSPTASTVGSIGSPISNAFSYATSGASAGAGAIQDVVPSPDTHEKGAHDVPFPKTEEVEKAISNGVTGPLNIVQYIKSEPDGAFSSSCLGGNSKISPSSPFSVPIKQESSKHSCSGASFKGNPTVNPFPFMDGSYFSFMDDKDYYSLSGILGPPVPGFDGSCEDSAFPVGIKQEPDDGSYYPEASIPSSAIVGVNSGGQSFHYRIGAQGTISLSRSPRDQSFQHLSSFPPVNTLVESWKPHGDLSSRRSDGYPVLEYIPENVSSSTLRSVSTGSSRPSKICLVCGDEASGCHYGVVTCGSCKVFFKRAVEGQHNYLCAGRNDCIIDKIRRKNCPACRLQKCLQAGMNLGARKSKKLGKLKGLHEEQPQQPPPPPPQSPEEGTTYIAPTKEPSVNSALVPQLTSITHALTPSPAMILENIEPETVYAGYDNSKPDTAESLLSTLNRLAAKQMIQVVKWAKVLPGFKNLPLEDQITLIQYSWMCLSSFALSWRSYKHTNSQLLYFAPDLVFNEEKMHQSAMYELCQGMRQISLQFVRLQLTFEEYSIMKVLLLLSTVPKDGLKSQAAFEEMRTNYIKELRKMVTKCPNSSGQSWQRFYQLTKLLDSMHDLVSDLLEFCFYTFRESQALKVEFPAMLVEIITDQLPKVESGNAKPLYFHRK
# Method: as §2
compound,measurement,setting,value
"C[C@]12CCC(=O)C[C@@H]1CC[C@@H]1[C@@H]2CC[C@]2(C)[C@@H](O)CC[C@@H]12 [DHT, 5α-dihydrotestosterone, reference compound]",cell growth,[1],inhibited
same,inhibition of ER-induced pS2 and PR gene expression,"HCI-13 tumor fragments; 10 nM DHT, 1 μM Formula IX, 100 nM fulvestrant, 3 days",effective
same,AR-target gene FKBP5 expression,HCI-13 tumor fragments; 3 days,induced
same,MKI67 expression,HCI-13 tumor fragments; 3 days,inhibited
same,cell morphology,MDA-MB-231-AR cells,altered the morphology into a more anchored phenotype
same,growth inhibitory effects in the presence of bicalutamide,"[2]; AR-positive cells, 10 μM bicalutamide",weakened growth inhibitory effects
same,cell growth,"[2]; cells with AR, 3 days, SRB",inhibited
"CCCCCCCCCCCCCC(=O)O[C@@H]1[C@@H](C)[C@@]2(O)[C@@H](C=C(CO)C[C@]3(O)C(=O)C(C)=C[C@@H]23)[C@@H]2C(C)(C)[C@]12OC(C)=O [PMA, phorbol 12-myristate 13-acetate]",reversal of pS2 gene expression inhibited by Formula IX,HCI-13 tumor fragments,completely reversed
"CC(=O)[C@H]1CC[C@H]2[C@@H]3CCC4=CC(=O)CC[C@]4(C)[C@H]3CC[C@]12C [Progesterone, progesterone, reference compound]",PR activation,PR; 1 nM,23 folds
"C[C@@](O)(COc1ccc(C#N)cc1)C(=O)Nc1ccc(C#N)c(C(F)(F)F)c1 [R-enantiomer of Formula IX, (R)—N-(4-cyano-3-(trifluoromethyl)phenyl)-3-(4-cyanophenoxy)-2-hydroxy-2-methylpropanamide]",IC50,PR,1690 nM
"CC#C[C@]1(O)CC[C@H]2[C@@H]3CCC4=CC(=O)CCC4=C3[C@@H](c3ccc(N(C)C)cc3)C[C@@]21C [RU486, reference compound]",IC50,PR,0.048 nM
"C[C@]12CCC(=O)C=C1CC[C@@H]1[C@@H]2[C@@H](O)C[C@]2(C=O)[C@@H](C(=O)CO)CC[C@@H]12 [aldosterone, reference compound]","MR activity, induction",MR,60 fold
EGF: epidermal growth factor,reversal of pS2 gene expression inhibited by Formula IX,HCI-13 tumor fragments,only marginally reversed
